Common to all, as to experiment: tryptophan fluorescence quenching, quadratic fit
What all share (conditions): read-out: Association Constant / Quadratic Model Ka (×10^5 M^-1) (converted)

Assay [1] has as its target T1, BSA (bovine serum albumin) (Bos taurus, UniProt P02769).
T1 construct: gene ALB; not biotinylated in the Ka titrations
Type of assay: binding. The source says: tryptophan fluorescence quenching, quadratic fit on BSA (bovine serum albumin)

Assay [2] addresses T2, CRABP2 (cellular retinoic acid-binding protein 2) (Mus musculus, UniProt P22935).
T2 construct: recombinant in E. coli BL21(DE3), GST tag removed by PreScission Protease
T2 sequence (P22935 1-138): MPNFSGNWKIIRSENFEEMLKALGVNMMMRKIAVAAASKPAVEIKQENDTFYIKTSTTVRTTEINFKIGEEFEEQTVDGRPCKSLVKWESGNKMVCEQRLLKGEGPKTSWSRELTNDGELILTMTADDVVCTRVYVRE
The text has this:
tryptophan fluorescence quenching, quadratic fit on CRABP2 (cellular retinoic acid-binding protein 2)

In assay [3] the target is T3, RBP1 (cellular retinol-binding protein 1) (Mus musculus, UniProt Q00915).
T3 construct: recombinant in E. coli BL21, GST tag cleaved with ProTEV protease
T3 sequence (Q00915 1-135): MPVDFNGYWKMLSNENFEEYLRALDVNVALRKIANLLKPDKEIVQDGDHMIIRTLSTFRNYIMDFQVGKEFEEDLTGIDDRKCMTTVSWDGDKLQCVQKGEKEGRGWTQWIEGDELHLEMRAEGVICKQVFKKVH
The source says:
tryptophan fluorescence quenching, quadratic fit on RBP1 (cellular retinol-binding protein 1)

T1 sequence (P02769 25-607): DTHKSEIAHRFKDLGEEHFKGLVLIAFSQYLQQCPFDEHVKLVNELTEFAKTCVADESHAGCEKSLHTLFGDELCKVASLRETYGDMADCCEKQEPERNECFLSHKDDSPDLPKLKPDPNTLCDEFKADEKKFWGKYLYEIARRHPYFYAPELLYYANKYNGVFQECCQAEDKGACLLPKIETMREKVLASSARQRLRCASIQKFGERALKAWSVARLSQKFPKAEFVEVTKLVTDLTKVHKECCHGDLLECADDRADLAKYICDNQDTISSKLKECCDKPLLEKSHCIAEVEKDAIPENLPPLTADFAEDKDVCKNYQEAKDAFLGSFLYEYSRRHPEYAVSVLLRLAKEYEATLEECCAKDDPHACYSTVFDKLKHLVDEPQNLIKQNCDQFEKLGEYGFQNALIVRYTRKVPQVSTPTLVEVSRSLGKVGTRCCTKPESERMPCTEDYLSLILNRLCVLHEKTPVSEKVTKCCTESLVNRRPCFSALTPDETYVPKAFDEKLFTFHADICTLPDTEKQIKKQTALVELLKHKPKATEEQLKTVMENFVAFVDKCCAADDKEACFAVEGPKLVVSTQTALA

Take `CC1=C(/C=C/C(C)=C/C=C/C(C)=C/C(=O)O)C(C)(C)CCC1` [atRA]: the Kd in assay [1] was 4170 nM; in assay [2], 12.8 nM.

As to `CC(C)N1CCC(C)(C)c2cc(C#Cc3ccc(C(=O)O)cc3)ccc21` [floRA], the Kd in assay [3] was 1270 nM; in assay [1], 4760 nM; in assay [2] it was 14.9 nM.

These data come from article PMC12212452, “Studies of All-trans Retinoic Acid Transport in the Eye” (Investigative Ophthalmology & Visual Science, 2025).
